Source: patent US4443459A, “α-Tocopheryl ester of 5-substituted picolinic acid and hypotensive composition containing it” (Banyu Pharmaceutical Co., Ltd., priority 1981, dated 1984)

Assays:
[1] = tested on: Spontaneous hypertensive rats; assay: Hypotensive action in spontaneous hypertensive rats, oral (tail artery pressure, plethysmography; Table 1); assay type: in vivo, rat (spontaneous hypertensive, male); details: spontaneous hypertensive rats
Source text: (§1) dl-α-tocopheryl 5-butylpicolinate and dl-α-tocopherol were used after they were each dissolved in a suitable amount of ethyl ether, mixed with a solution containing 2% of Tween 80 and 2% of Span 40 and after removing ethyl ether, uniformly emulsified. 5-Butylpicolinic acid was used as a solution in 2% Tween 80+2% Span.
(§2) Spontaneous hypertensive rats (male, body weight 350 to 370 g) and Wistar rats with a normal blood pressure level (female, body weight 250 to270 g), three per group, were used. Without anesthesia, the pressure of the tail artery was measured by plethysmography.

[2] = tested on: stomach of rats; assay: Side-effects: gastric trouble after oral administration for 4 consecutive days; assay type: in vivo, rat; details: 100 mg/kg
Description: dl-α-Tocopheryl 5-butylpicolinate of the invention and 5-butylpicolinic acid as a control were administered orally to rats for 4 consecutive days at a dose of 300 mg/kg (90.9 mg/kg calculated for 5-butylpicolinic acid) and 100 mg/kg. Then, the stomach of each rat was incised and observed for the occurrence of a gastric trouble.

[3] = in vivo; details: mouse
Description: ddY-Strain female mice (body weight about 20 g), five per group, were used and each of the test compounds was orally or intraperitoneally administered, and two days after the administration, the number of dead mice was counted. From it, the acute toxicity LD50 of each of the compounds was determined by the Behrens-Kraerber method.

[4] = tested on: Normotensive Wistar rats; assay: Hypotensive action in normotensive Wistar rats, oral (tail artery pressure, plethysmography; Table 2); assay type: in vivo, rat (Wistar, female); details: 50 mg/kg oral, normotensive Wistar rats
Source text: as §1, §2

## CCCCc1ccc(C(=O)O)nc1 [B, 5-butylpicolinic acid, reference compound]
[1]; 3.125 mg/kg oral
  Blood pressure lowering rate, 1h: 16.9%
  Blood pressure lowering rate, 2h: 0.7%
  Blood pressure lowering rate, 3h: 0%
  Blood pressure lowering rate, 4h: 0%
[1]; 12.5 mg/kg oral
  Blood pressure lowering rate, 1h: 35.7%
  Blood pressure lowering rate, 2h: 21.7%
  Blood pressure lowering rate, 3h: 11.8%
  Blood pressure lowering rate, 4h: 0%
[2]
  occurrence of gastric trouble: Light degrees of edema, congestion, or bleeding were noted in the stomachs of all cases (five rats)
[3]; ip
  LD50 at 48 h: 89 mg/kg
[3]; po
  LD50 at 48 h: 180 mg/kg
[4]; 1h
  Blood pressure lowering rate, 1h: 27.0%
[4]; 2h
  Blood pressure lowering rate, 2h: 33.5%
[4]; 3h
  Blood pressure lowering rate, 3h: 26.2%
[4]; 4h
  Blood pressure lowering rate, 4h: 0%
